Results: patent US20240368133A1, “Compounds for the Treatment of Pain, in Particular, Neuropathic Pain, and/or Other Diseases or Disorders that are Associated with AT2R and/or AT2R Mediated Signaling” (Confo Therapeutics N.V., priority 2021, published 2024)

What was measured:
Type in all cases: in vitro ADME
[1] = Plasma protein binding (equilibrium dialysis), human; settings: for fraction unbound: equilibrium dialysis, read-out: PPB (%), human (converted); for recovery: plasma (undiluted, freshly thawed), PPB assay recovery
Procedure: (§1) The assay was performed in a multiple-use 96-well dialysis unit (HTD96b dialyzer). Each individual well unit consisted of 2 chambers separated by a vertically aligned dialysis membrane of predetermined pore size (MWCO 12-14 kDa). 120 μl of non-diluted freshly thawed mouse, rat or human plasma spiked with the compound (1 μM, final DMSO concentration 1%) was added to one chamber and the same volume of PBS buffer pH 7.4 to the other chamber. HTD96b dialyzer was covered with adhesive sealing film and incubated at 37° C., shaking at 100 rpm for 5 hours.
(§2) For samples preparation, an aliquot of the content of each chamber had been mixed with the same volume of the blank opposite matrix. In order to define non-specific loss of the compound during this assay, a standard solution was created by mixing an aliquot of spiked plasma with blank buffer without dialysis. Samples were diluted 10-fold with 100% acetonitrile with subsequent plasma proteins sedimentation by centrifuging at 6000 rpm for 5 minutes. Supernatants were analyzed using HPLC system coupled with tandem mass spectrometer (API3000 PE Sciex). Acquisition and analysis of the data were performed using Analyst 1.5.2 software (PE Sciex). The percentage of plasma protein bound compound and recovery were calculated using following equations: […]
(§3) The percentage of plasma protein bound compound and recovery were calculated using following equations:
(§4) with: • Cplasma=peak area of the compound in the plasma/peak area of the IS in the plasma • Cbuffer=peak area of the compound in the buffer/peak area of the IS in the buffer • ‘Concentration’ is the ratio between compound and IS peak areas
(§5) The recovery is a control, which allows to be sure that the compound has not a non-specific binding to the plates or is not stable in the plasma in these conditions:
(§6) with: • PBS=(ratio of the peak area of the compound/peak area of the IS) in the PBS compartment after 4 h • Plasma=(ratio of the peak area of the compound/peak area of IS) in the plasma compartment after 4 h • Recov=Recovery=ratio of the peak are of the compound I the well recovery/peak area of the IS in the well recovery at TO
(§7) The solubility of the compound in the final test concentration in PBS is checked by microscope to indicate whether precipitation is observed or not. If a precipitate is observed, no data of PPB is generated.

[2] = Plasma protein binding (equilibrium dialysis), mouse; settings: for fraction unbound: equilibrium dialysis, read-out: PPB (%), mouse (converted); for recovery: plasma (undiluted, freshly thawed), PPB assay recovery
Procedure: as §1, §2, §3, §4, §5, §6, §7

[3] = Plasma protein binding (equilibrium dialysis), rat; settings: for fraction unbound: equilibrium dialysis, read-out: PPB (%), rat (converted); for recovery: plasma (undiluted, freshly thawed), PPB assay recovery
Procedure: as §1, §2
Prior to the start of the experiment, dialysis membranes (membrane strips, MW cut-off 12-14 kDa, HTDialysis, Cat.NoJl 101) are soaked in deionized water for 60 min, transferred and left overnight in 20% EtOH. The day of experiment, a 10 mM stock solution of the compound in DMSO is diluted with a factor 10 in DMSO. This solution is further diluted in freshly thawed human, rat, mouse or dog plasma (BioIVT) with a final concentration of 5 μM and final DMSO concentration of 0.5%.
From this solution, an aliquot of 50 μL was taken and matrix matched with an equivalent volume of PBS for the recovery plate, after which 6 volumes of STOP solution were added to the recovery plate. For these recovery plates, no incubation is done.
Equilibrium Dialysis Device (96-well, model HTD96b, HTDialysis, Cat. No. #1006) is assembled according to manufacturer's instructions. Immediately after assembly, a volume of 100 μL of plasma (spiked with compound) is placed on one side of the well and another 100 μL of blank PBS buffer are added to the other side, respectively. Each compound is tested in duplicate. Acebutolol and Nicardipine are used as low and very high binding controls, except for the mouse, Caffeine is used as low binder instead Acebutolol. If the PPB values for these controls are not in the range determined by the historical data, the assay is not validated.
The plate is incubated for 4 h at 37° C. while shaking at 230 rpm. Thereafter, an aliquot of 50 μL is taken from each side of the well and matrix matched (mix of equal volumes of spiked plasma with blank PBS buffer and samples from buffer compartment with blank plasma). Matrix matched samples are further mixed with 3 volumes of STOP solution (acetonitrile/MeOH 2/1 with diclofenac as internal standard). After brief mixing and centrifugation (at 2400 rpm for 15 min, at +4° C.), the supernatant is filtered and transferred into new 96-well plates for analysis on LC-MS/MS (systems API4000).
as §3, §4
The recovery is a control, which allows to be sure that the compound has not a non-specific binding to the plates or is not stable in the plasma in these conditions: […]

[4] = Metabolic stability in hepatocytes, rat; settings: hepatocytes (cryopreserved), read-out: Rat Clint (μL/min/10^6 cells)
Procedure: The aim of this assay is to determine the metabolic stability of the compound in hepatocytes (cryopreserved) of different species (mouse CD1, rat Sprague Dawley, dog Beagle). Low hepatocyte stability may result in the formation of unwanted metabolites, high clearance, and therefore is not desirable. The decrease in parent was assessed by measuring the percentage remaining by LC-MS/MS analysis. The batches of hepatocytes were tested for quality control using Testosterone, Umbelliferone and Caffeine as reference compounds.
A 10 mM stock solution of test compound in DMSO was first diluted in DMSO to 3 mM, and then in modified Krebs-Henseleit buffer (Sigma, K3753) to 5 μM. This compound dilution was added to a suspension of pooled cryopreserved hepatocytes (BioIVT) at 37° C. under gentle shaking. Final reaction conditions were: 1 μM of test compound, <0.1% DMSO, 0.5 million viable hepatocytes/mL, and 75 μL incubation volume.
After 0, 10, 20, 45, 90, 120 and 180 min of incubation, the reaction was terminated with 3 volumes of MeCN:MeOH (2:1) containing diclofenac as analytical internal standard. Samples were mixed, centrifuged and the supernatant analyzed by LC-MS/MS (systems API4000). The instrument responses (ratios of test compound and internal standard peak areas) were referenced to the zero time point samples (considered as 100%) in order to determine the percentage of compound remaining. Plots of percentage compound remaining were used to determine the intrinsic clearance in the hepatocyte incubations.
Testosterone (1 μM) and Umbelliferone (1 μM) and Caffeine (1 μM) were used as reference compounds, being unstable and stable compounds respectively. If the hepatocyte stability values for these controls are not in the range determined by the historical data, the assay is not validated.

| Compound | fraction unbound [1] | recovery [1] | fraction unbound [2] | recovery [2] | fraction unbound [3] | recovery [3] | hepatocyte CLint [4] |
| --- | --- | --- | --- | --- | --- | --- | --- |
| CCC1CN(c2cc(CC(C)C)cc(F)c2-c2nn[nH]n2)CCN1Cc1cccnn1 (stereo not shown) [Compound A-178, 3-[[2-ethyl-4-[3-fluoro-5-isobutyl-2-(2H-tetrazol-5-yl)phenyl]piperazin-1-yl]methyl]pyridazine] | 0.04 | 99% | 0.1 | 93% | 0.12 | 96% | 0.2 µL/min/1e6 cells |
| CC(C)Cc1cc(F)c(-c2nn[nH]n2)c(N2CC(C)N(Cc3cccnn3)CC2C)c1 (stereo not shown) [Compound A-183, 3-[[4-[3-fluoro-5-isobutyl-2-(2H-tetrazol-5-yl)phen-yl]-2,5-dimethyl-piperazin-1-yl]-methyl]pyridazine] | 0.06 | 96% | 0.13 | 90% | 0.23 | 92% | 2.6 µL/min/1e6 cells |
| CC(C)Cc1cc(F)c(-c2nn[nH]n2)c(N2CCN(Cc3ccccn3)[C@@H](C)C2)c1 [Compound A-217, (2S)-4-[3-fluoro-5-isobutyl-2-(2H-tetrazol-5-yl)phenyl]-2-methyl-1-(2-pyridylmethyl)piperazine] | 0.004 | 100% |  |  | 0.004 | 98% | 8.7 µL/min/1e6 cells |

More lines, now with the values ahead:

| fraction unbound [1] | recovery [1] | fraction unbound [2] | recovery [2] | fraction unbound [3] | recovery [3] | hepatocyte CLint [4] | Compound |
| --- | --- | --- | --- | --- | --- | --- | --- |
| < 0.08 | 82% | < 0.05 | 88% | < 0.1 | 84% |  | CC(C)Cc1ccc(-c2nn[nH]n2)c(N2CCN(Cc3nc4ccccc4c(=O)[nH]3)CC2)c1 [Compound A-31, 2-[[4-[5-isobutyl-2-(2H-tetrazol-5-yl)phenyl]piperazin-1-yl]methyl]-3H-quinazolin-4-one] |
| 0.05 | 83% | 0.22 | 97% | 0.23 | 105% |  | CC(C)Cc1ccc(-c2nn[nH]n2)c(N2CCN(Cc3cccnn3)CC2)c1 [Compound A-90, 3-[[4-[5-isobutyl-2-(2H-tetrazol-5-yl)phenyl]piperazin-1-yl]methyl]pyridazine] |
| 0.05 | 94% | 0.12 | 92% | 0.19 | 100% | 2 µL/min/1e6 cells | CC(C)Cc1cc(F)c(-c2nn[nH]n2)c(N2CCN(Cc3cccnn3)C(C)C2)c1 (stereo not shown) [Compound A-173, 3-[[4-[3-fluoro-5-isobutyl-2-(2H-tetrazol-5-yl)phenyl]-2-methyl-piperazin-1-yl]methyl]pyridazine] |
| 0.026 | 99% | 0.027 | 95% | 0.017 | 90% | 10.5 µL/min/1e6 cells | CC(C)Cc1cc(F)c(-c2nn[nH]n2)c(N2CCN(Cc3cccnn3)[C@@H](C)C2)c1 [Compound A-174, 3-[[(2S)-4-[3-fluoro-5-isobutyl-2-(2H-tetrazol-5-yl)phenyl]-2-methyl-piperazin-1-yl]methyl]pyridazine] |
| 0.03 | 95% | 0.07 | 96% | 0.12 | 96% | 1 µL/min/1e6 cells | CCC1CN(Cc2cccnn2)CCN1c1cc(CC(C)C)cc(F)c1-c1nn[nH]n1 (stereo not shown) [Compound A-181, 3-[[3-ethyl-4-[3-fluoro-5-isobutyl-2-(2H-tetrazol-5-yl)phenyl]piperazin-1-yl]methyl]pyridazine] |
